The source made the active and inactive calls. The rule behind the calls is not given here.
Experiments:
[1] = target: T1, Prostaglandin G/H synthase 2 (Homo sapiens) (UniProt P35354); assay: Inhibition of COX2 at 50 uM
T1 sequence (whole entry): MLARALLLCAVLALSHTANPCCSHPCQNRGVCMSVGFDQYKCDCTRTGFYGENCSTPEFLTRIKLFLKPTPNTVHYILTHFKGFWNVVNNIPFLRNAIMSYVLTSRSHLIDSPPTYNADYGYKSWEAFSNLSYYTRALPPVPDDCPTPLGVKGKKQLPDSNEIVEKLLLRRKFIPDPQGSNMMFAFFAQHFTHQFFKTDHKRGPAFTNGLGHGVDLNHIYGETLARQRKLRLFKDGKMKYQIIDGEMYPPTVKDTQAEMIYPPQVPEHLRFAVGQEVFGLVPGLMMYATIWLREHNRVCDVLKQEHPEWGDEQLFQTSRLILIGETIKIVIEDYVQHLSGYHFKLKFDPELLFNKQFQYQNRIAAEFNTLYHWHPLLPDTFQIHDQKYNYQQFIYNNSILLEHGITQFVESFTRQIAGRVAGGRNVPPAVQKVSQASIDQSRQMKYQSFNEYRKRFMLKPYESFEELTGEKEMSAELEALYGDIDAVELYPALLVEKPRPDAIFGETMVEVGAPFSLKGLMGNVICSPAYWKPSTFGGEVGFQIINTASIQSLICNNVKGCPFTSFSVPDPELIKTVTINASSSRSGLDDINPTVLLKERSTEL

HCT-8 = assay: Cytotoxicity activity against human HCT8 cells after 72 hrs by MTT assay; type: functional, cell-based; settings: HCT-8, 72 h
A2780 = assay: Cytotoxicity activity against human A2780 cells after 72 hrs by MTT assay; type: functional, cell-based; settings: A2780, 72 h
Bel-7402 = assay: Cytotoxicity activity against human Bel7402 cells after 72 hrs by MTT assay; type: functional, cell-based; settings: Bel-7402, 72 h
A549 = assay: Cytotoxicity activity against human A549 cells after 72 hrs by MTT assay; type: functional, cell-based
BGC-823 = assay: Cytotoxicity activity against human BGC823 cells after 72 hrs by MTT assay; type: functional, cell-based; settings: BGC-823, 72 h

Row | SMILES | inhibition [1] | IC50 (HCT-8) | IC50 (A2780) | IC50 (Bel-7402) | Activity (A549) | IC50 (BGC-823)
1 | C=C(C(=O)O)C(CCC(C)=O)CC1=C(C)C(=O)CC1=O (stereo not drawn) | 98.2% | – | – | – | – | –
2 | C=C1C(=O)O[C@H]2[C@H]1CC[C@](C)(O)[C@]13O[C@H]1[C@H](Cl)[C@](C)(O)[C@H]23 | 98.4% | – | – | – | – | –
3 | C=C1C(=O)O[C@@H]2[C@@H]3C4(C=C[C@@]3(C)C3(C4)C(=O)O[C@@H]4[C@H]5C(C)=CC(=O)C5=C(C)C[C@H](O)[C@H]43)[C@@](C)(OC(C)=O)CC[C@@H]12 (stereo partly drawn) [ARTANOMALIDE D] | 99.5% | 1.9 µM | 1.8 µM | 3 µM | inactive | 8.5 µM

— ChEMBL document CHEMBL1154828, “Dimeric guaianolides and sesquiterpenoids from Artemisia anomala” (J Nat Prod, 2010)
